Laboratory results from PubChem BioAssay (NCI).
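Each compound was tested at five concentrations against cells in 96-well plates for 48 hours. Abbreviation: GI50, concentration required for 50% inhibition of growth. Definition used: TGI = concentration required for complete inhibition of growth.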

Legend:
Test in all cases: NCI-60 cell line screen, 48 h
OVCAR-5 ovarian = test system: OVCAR-5 ovarian
PC-3 prostate = test system: PC-3 prostate
K-562 leukemia = test system: K-562 leukemia
COLO 205 colon = test system: COLO 205 colon
T-47D breast = test system: T-47D breast
SF-295 CNS = test system: SF-295 CNS
IGROV1 ovarian = test system: IGROV1 ovarian
SK-MEL-5 melanoma = test system: SK-MEL-5 melanoma
HT29 colon = test system: HT29 colon
NCI/ADR-RES ovarian = test system: NCI/ADR-RES ovarian
NCI-H23 lung = test system: NCI-H23 lung
HS 578T breast = test system: HS 578T breast
SR leukemia = test system: SR leukemia
SK-OV-3 ovarian = test system: SK-OV-3 ovarian
SF-539 CNS = test system: SF-539 CNS
HOP-92 NSCLC = test system: HOP-92 NSCLC
OVCAR-3 ovarian = test system: OVCAR-3 ovarian
UACC-62 melanoma = test system: UACC-62 melanoma
SK-MEL-2 melanoma = test system: SK-MEL-2 melanoma
TK-10 renal = test system: TK-10 renal
SW-620 colon = test system: SW-620 colon
SN12C renal = test system: SN12C renal
HCT-15 colon = test system: HCT-15 colon
MCF7 breast = test system: MCF7 breast
RPMI-8226 leukemia = test system: RPMI-8226 leukemia
UO-31 renal = test system: UO-31 renal
U251 CNS = test system: U251 CNS
MALME-3M melanoma = test system: MALME-3M melanoma
SNB-75 CNS = test system: SNB-75 CNS

Compound: COc1ccc2c(c1)OCC1c3cc(OC)c4ccccc4c3OC21 (configuration not stated)
- TGI (OVCAR-5 ovarian): 57 µM
- GI50 (PC-3 prostate): 8.82 µM
- TGI (PC-3 prostate): > 100 µM
- GI50 (K-562 leukemia): 4.62 µM
- TGI (K-562 leukemia): > 100 µM
- GI50 (COLO 205 colon): 7.98 µM
- TGI (COLO 205 colon): 33.1 µM
- GI50 (T-47D breast): 13.7 µM
- TGI (T-47D breast): 47 µM
- GI50 (SF-295 CNS): 2 µM
- TGI (SF-295 CNS): 6.91 µM
- GI50 (IGROV1 ovarian): 4.98 µM
- TGI (IGROV1 ovarian): 21.6 µM
- GI50 (SK-MEL-5 melanoma): 5.11 µM
- TGI (SK-MEL-5 melanoma): 24.2 µM
- GI50 (HT29 colon): 3.84 µM
- TGI (HT29 colon): > 100 µM
- GI50 (NCI/ADR-RES ovarian): 4 µM
- TGI (NCI/ADR-RES ovarian): 28.2 µM
- GI50 (NCI-H23 lung): 4.88 µM
- TGI (NCI-H23 lung): 43.2 µM
- GI50 (HS 578T breast): 11.3 µM
- TGI (HS 578T breast): 37 µM
- GI50 (SR leukemia): 3.89 µM
- TGI (SR leukemia): 16.6 µM
- GI50 (SK-OV-3 ovarian): 15.9 µM
- TGI (SK-OV-3 ovarian): > 100 µM
- GI50 (SF-539 CNS): 21.3 µM
- TGI (SF-539 CNS): > 100 µM
- GI50 (HOP-92 NSCLC): 22.3 µM
- TGI (HOP-92 NSCLC): > 100 µM
- GI50 (OVCAR-3 ovarian): 1.5 µM
- TGI (OVCAR-3 ovarian): 4.08 µM
- GI50 (UACC-62 melanoma): 3.05 µM
- TGI (UACC-62 melanoma): 18.9 µM
- GI50 (SK-MEL-2 melanoma): 12.2 µM
- TGI (SK-MEL-2 melanoma): 77.7 µM
- GI50 (TK-10 renal): 11.8 µM
- TGI (TK-10 renal): 53.9 µM
- GI50 (SW-620 colon): 3.98 µM
- TGI (SW-620 colon): > 100 µM
- GI50 (SN12C renal): 17.1 µM
- TGI (SN12C renal): 77.4 µM
- GI50 (HCT-15 colon): 6.06 µM
- TGI (HCT-15 colon): > 100 µM
- GI50 (MCF7 breast): 3.59 µM
- TGI (MCF7 breast): > 100 µM
- GI50 (RPMI-8226 leukemia): 10.6 µM
- TGI (RPMI-8226 leukemia): > 100 µM
- GI50 (UO-31 renal): 22.2 µM
- TGI (UO-31 renal): > 100 µM
- GI50 (U251 CNS): 9.95 µM
- TGI (U251 CNS): 67 µM
- GI50 (MALME-3M melanoma): 5.01 µM
- TGI (MALME-3M melanoma): > 100 µM
- GI50 (SNB-75 CNS): 11.8 µM
- TGI (SNB-75 CNS): 47.9 µM
